Reference: ChEMBL document CHEMBL1201862, “PubChem BioAssay data set” (2004)
Several values for one entry are separate records, joined by “and”; a condition that tells them apart may be missing. Equal entries are not always repeated. Activity calls are given as the source filed them.

How the values were obtained:
[1] = target: T1, Voltage-gated N-type calcium channel alpha-1B subunit/Amyloid beta A4 precursor protein-binding family A member 1 (Homo sapiens, UniProt Q00975+Q02410); type: protein assay
SUMO-activating enzyme = SUMO-activating enzyme (Homo sapiens, UniProt Q9UBT2); assay: SUMOylation inhibitor hit validation, confirmation, SUMOylation inhibitor project, biochemical, AlphaScreen (AID 2018); type: functional
[2] = target: T1, Voltage-gated N-type calcium channel alpha-1B subunit/Amyloid beta A4 precursor protein-binding family A member 1; type: protein assay; remark: listed apart in the source
[3] = target: 72 kDa type IV collagenase (Homo sapiens, UniProt P08253); assay: Dose Response validation of uHTS RPN11 inhibitor hits using a MMP-2 Fluorescence assay.; type: functional
Prothrombin = Prothrombin (Bos taurus, UniProt P00735); assay: thrombin inhibition, dose response, biochemical, fluorescence polarization, uHTS hits (AID 602369); type: functional
[4] = target: T2, Carboxy-terminal domain RNA polymerase II polypeptide A small phosphatase 1 (Homo sapiens, UniProt Q9GZU7); assay: inhibitors of CTDSP1, concentration-response testing, biochemical assay, absorbance-based, actives from ultra-high-throughput screening (AID 540297); type: functional
T2 sequence (Q9GZU7 whole entry): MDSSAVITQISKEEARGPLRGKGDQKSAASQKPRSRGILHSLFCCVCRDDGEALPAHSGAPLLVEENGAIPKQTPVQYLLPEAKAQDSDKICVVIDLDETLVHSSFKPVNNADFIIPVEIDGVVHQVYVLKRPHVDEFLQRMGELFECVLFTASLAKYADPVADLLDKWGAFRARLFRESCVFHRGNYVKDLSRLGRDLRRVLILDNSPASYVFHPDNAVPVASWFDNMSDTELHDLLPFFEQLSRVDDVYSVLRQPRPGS

[5] = target: 26S proteasome non-ATPase regulatory subunit 14 (Homo sapiens, UniProt O00487); assay: inhibition of proteasome subunit RPN11 – biochemical, fluorescence polarization, uHTS hits, confirmation (AID 602368); type: functional
[6] = target: Peroxisome proliferator-activated receptor gamma/Nuclear receptor coactivator 1 (Homo sapiens, UniProt P37231); assay: (§1) TR-FRET dose response biochemical High Throughput Screening assay for agonists of the steroid receptor coactivator 1 (SRC-1) recruitment by the peroxisome proliferator-activated receptor gamma (PPAR gamma): non-selective agonists. [Related pubchem assays (depositor defined):AID1300, AID1808, AID504735, AID631]; type: protein assay
[7] = target: Peroxisome proliferator-activated receptor gamma/Nuclear receptor coactivator 3 (Homo sapiens, UniProt P37231); assay: as §1, with “3 (SRC-3)” for “1 (SRC-1)”, “assays: 1301 (Confirmation screen.), 1048 (Primary screen.)]” for “assays (depositor defined):AID1300, AID1808, AID504735, AID631]”; type: functional
[8] = target: Peroxisome proliferator-activated receptor gamma/Nuclear receptor coactivator 2 (Homo sapiens, UniProt P37231); assay: TR-FRET dose response biochemical High Throughput Screening assay for agonists of the steroid receptor coactivator 2 (SRC-2) recruitment by the peroxisome proliferator-activated receptor gamma (PPAR gamma): non-selective agonists. [Related pubchem assays: 1297, 1032 ]; type: functional
[9] = target: Induced myeloid leukemia cell differentiation protein Mcl-1 (Homo sapiens, UniProt Q07820); type: functional
[10] = target: Tyrosine-protein phosphatase non-receptor type 7 (Homo sapiens, UniProt P35236); assay: HePTP (PTPN7) phosphatase inhibitor potency, SAR follow-up, biochemical, set 2 (AID 449736); type: functional
HEK293 [11] = assay: cells; type: functional, cell-based; conditions: Homo sapiens
HEK293 [12] = assay: NOD1 signaling inhibitors, primary screen, cell-based, luminescence, uHTS (AID 1578); type: functional; conditions: Homo sapiens
HEK293 [13] = assay: NOD2 signaling inhibitors in MDP-stimulated cells, cell-based, uHTS, luminescence (AID 2001); type: functional; conditions: Homo sapiens
INS1 = assay: beta cell apoptosis inhibitors, cytokine rescue, dose response, luminescence, retest (AID 449756); type: functional, cell-based; conditions: Rattus norvegicus;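 note: cell death triggered by IL-1 beta plus TNF-alpha plus IFN-gamma mixture; protective hits raise ATP signal compared with cytokine alone wells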
[14] = target: T3, Nucleotide-binding oligomerization domain-containing protein 1 (Homo sapiens, UniProt Q9Y239); assay: NOD1 signaling inhibitors, SAR follow-up, revised (AID 2333); type: functional
T3 sequence (Q9Y239 whole entry): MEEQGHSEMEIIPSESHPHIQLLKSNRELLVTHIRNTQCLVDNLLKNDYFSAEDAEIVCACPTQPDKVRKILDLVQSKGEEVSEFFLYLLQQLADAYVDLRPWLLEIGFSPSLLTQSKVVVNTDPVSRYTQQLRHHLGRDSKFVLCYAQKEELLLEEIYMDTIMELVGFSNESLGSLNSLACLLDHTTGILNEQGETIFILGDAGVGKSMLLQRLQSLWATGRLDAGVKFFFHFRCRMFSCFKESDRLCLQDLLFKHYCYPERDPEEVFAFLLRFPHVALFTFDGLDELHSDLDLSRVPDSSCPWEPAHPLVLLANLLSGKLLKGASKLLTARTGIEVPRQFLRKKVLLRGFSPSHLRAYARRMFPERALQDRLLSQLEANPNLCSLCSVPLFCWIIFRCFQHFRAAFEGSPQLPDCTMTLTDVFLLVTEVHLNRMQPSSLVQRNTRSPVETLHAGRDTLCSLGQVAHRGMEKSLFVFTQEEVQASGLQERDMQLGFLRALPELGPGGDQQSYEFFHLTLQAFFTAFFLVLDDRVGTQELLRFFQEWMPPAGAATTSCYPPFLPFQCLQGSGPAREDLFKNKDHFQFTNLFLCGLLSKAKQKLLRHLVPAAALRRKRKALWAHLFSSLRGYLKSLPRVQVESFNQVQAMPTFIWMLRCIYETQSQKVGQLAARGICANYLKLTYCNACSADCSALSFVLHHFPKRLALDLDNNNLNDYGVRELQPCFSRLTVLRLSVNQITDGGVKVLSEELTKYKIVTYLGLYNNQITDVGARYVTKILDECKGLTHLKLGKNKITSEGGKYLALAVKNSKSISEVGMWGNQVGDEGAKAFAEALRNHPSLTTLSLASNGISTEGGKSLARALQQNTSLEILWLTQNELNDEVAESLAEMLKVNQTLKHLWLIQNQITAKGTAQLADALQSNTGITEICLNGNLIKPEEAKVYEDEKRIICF

[15] = control 3'UTR Renilla luciferase suppression, dose response, counter-screen for Shn3 inhibitor project, cell-based, Clone20-Shn3RL, cherry-picked (AID 624133); type: functional
Tumor necrosis factor = Tumor necrosis factor (Homo sapiens, UniProt P01375); assay: TNFa-triggered NF-kB activation inhibitors, SAR follow-up, cell-based, revised (AID 2337); type: functional
HEK293 [16] = assay: cells; conditions: Homo sapiens
[17] = HepG2 cell cytotoxicity, dose response, cytotoxicity control for Shn3 inhibitor project, CellTiter-Glo, cherry-picked (AID 624134); type: functional, cell-based
HEK293 [18] = assay: cells; type: functional, cell-based; conditions: Homo sapiens; remark: listed apart in the source
[19] = Shn3 3'UTR reporter inhibitors, dose response, cell-based, Clone20 osteoblasts, firefly luciferase, cherry-picked (AID 624132); type: functional;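 note: firefly luciferase luminescence from reporter carrying the Shn3 3'UTR in osteoblasts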
[20] = cytotoxicity in HEK-293T cells, dose response, cytotoxicity control for TCR NF-kB inhibitor project, luminescence, T-cell screen hits (AID 489026); type: functional, cell-based;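 note: cells exposed to compound about 14 hours before the viability readout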
[21] = target: Eukaryotic translation initiation factor 4H (Homo sapiens, UniProt Q15056); assay: eIF4H inhibition in translation initiation, SAR follow-up (AID 435011); type: functional
[22] = target: Polyadenylate-binding protein 1 (Homo sapiens, UniProt P11940); assay: PABP inhibition in translation initiation, SAR follow-up (AID 435018); type: functional
[23] = target: T4, E3 ubiquitin-protein ligase XIAP (Homo sapiens, UniProt P98170); assay: Counter Screen using XIAP-Bir3 for Chemical Antagonists of Bir1/2 domains of IAP-family anti-apoptotic proteins. [Related pubchem assays (depositor defined):AID1018, AID1449, AID1514, AID1638, AID1749, AID1750, AID488957, AID488963]
[24] = target: T4, E3 ubiquitin-protein ligase XIAP; assay: XIAP antagonists, biochemical, IAP family, fluorescence polarization (AID 1018); type: functional

Sequence of Tyrosine-protein phosphatase non-receptor type 7 (P35236 whole entry): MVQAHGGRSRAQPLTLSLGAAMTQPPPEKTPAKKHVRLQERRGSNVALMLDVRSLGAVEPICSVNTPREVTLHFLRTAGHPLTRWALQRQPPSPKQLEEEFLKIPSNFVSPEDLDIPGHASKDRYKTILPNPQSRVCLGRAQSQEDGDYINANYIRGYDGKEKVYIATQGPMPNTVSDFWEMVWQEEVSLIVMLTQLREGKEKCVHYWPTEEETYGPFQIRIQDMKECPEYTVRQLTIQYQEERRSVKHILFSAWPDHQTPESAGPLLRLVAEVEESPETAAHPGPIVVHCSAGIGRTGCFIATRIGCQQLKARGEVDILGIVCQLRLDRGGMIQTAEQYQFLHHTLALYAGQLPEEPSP
Sequence of Tumor necrosis factor (P01375 whole entry): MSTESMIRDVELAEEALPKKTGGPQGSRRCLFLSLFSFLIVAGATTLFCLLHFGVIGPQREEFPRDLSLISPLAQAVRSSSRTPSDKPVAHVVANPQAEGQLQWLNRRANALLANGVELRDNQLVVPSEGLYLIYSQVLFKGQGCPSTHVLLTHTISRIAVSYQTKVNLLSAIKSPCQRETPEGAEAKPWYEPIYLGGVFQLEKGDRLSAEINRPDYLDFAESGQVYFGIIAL
T1 sequence (Q00975 whole entry): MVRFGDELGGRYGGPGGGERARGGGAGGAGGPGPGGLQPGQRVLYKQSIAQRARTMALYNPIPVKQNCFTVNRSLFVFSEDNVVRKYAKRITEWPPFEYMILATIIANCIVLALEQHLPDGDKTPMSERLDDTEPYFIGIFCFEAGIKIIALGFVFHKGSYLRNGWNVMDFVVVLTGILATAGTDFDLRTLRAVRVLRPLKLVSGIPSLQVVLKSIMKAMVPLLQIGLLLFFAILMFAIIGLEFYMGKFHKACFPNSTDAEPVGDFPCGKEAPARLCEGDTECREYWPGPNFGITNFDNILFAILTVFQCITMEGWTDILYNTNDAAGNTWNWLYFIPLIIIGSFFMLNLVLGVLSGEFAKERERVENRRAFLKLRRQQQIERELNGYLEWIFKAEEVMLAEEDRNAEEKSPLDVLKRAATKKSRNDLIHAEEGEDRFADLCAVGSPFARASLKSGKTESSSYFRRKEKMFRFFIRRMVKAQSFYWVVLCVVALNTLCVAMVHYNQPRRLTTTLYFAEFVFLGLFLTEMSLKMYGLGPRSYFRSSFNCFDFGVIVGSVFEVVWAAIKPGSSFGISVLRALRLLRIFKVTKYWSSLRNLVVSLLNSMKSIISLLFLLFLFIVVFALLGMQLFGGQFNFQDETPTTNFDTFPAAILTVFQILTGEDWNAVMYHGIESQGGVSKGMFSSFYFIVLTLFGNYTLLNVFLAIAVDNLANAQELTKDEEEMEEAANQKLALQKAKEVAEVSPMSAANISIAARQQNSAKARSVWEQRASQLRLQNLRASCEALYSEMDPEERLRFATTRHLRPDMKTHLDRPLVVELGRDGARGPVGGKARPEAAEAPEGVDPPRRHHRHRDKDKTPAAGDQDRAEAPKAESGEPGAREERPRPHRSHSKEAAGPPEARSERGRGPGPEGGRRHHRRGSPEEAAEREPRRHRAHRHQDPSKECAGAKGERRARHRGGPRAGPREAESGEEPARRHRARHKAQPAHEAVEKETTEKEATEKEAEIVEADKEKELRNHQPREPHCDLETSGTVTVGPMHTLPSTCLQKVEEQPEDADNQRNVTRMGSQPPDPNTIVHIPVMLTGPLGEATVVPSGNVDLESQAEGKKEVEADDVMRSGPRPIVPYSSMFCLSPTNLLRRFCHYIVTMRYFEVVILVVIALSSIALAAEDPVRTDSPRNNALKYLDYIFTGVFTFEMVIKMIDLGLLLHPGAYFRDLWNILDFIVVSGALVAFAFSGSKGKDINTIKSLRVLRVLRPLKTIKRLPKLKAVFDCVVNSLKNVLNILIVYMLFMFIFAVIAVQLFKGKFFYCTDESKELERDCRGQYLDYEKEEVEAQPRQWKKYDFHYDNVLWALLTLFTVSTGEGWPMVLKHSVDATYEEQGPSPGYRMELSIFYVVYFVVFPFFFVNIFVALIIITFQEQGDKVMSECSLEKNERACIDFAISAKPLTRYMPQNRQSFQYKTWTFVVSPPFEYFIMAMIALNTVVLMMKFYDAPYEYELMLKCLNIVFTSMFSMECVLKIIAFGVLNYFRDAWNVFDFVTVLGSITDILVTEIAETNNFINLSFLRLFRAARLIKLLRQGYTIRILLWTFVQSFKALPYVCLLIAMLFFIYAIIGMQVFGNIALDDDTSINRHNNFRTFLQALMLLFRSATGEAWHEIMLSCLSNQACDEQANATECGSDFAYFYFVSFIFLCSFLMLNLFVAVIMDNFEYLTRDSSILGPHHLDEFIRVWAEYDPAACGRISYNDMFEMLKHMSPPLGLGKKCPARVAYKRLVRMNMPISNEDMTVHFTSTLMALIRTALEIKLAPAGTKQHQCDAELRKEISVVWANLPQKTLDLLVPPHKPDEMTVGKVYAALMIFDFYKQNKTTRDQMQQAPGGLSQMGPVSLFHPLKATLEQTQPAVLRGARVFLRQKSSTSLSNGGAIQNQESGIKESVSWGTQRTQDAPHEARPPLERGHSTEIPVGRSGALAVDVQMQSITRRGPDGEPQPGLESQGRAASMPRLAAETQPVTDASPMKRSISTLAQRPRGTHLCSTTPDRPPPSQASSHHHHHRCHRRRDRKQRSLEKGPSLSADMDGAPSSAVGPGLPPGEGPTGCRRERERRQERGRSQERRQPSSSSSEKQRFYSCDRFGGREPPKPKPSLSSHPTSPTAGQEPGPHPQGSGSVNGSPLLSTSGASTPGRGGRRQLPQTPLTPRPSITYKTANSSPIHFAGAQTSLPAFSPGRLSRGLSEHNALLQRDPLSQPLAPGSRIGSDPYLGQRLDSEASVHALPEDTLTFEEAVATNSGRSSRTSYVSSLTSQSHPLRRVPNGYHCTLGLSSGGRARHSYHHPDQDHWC
T1 sequence (Q02410 whole entry): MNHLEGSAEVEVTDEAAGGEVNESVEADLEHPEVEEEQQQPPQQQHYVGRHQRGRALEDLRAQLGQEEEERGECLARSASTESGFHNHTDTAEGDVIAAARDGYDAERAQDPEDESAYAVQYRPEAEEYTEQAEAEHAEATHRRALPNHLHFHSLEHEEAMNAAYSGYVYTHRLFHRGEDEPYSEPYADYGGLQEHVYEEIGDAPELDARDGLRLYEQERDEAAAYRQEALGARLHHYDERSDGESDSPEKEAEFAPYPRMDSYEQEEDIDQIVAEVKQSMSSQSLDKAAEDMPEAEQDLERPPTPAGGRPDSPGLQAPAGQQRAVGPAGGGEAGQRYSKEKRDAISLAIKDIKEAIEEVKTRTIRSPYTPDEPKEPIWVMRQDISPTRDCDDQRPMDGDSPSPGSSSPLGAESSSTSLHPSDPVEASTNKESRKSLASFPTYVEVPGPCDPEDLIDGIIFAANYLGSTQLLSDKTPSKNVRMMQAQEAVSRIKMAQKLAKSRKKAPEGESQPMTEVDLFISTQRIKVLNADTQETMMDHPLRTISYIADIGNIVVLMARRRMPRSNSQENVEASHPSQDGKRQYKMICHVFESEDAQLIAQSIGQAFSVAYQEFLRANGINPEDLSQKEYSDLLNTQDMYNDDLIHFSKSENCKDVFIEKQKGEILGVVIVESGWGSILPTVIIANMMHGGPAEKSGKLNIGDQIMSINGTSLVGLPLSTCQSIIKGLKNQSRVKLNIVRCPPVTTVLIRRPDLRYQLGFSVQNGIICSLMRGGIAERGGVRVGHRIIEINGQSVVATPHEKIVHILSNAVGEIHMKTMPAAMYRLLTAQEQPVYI
T4 sequence (P98170 whole entry): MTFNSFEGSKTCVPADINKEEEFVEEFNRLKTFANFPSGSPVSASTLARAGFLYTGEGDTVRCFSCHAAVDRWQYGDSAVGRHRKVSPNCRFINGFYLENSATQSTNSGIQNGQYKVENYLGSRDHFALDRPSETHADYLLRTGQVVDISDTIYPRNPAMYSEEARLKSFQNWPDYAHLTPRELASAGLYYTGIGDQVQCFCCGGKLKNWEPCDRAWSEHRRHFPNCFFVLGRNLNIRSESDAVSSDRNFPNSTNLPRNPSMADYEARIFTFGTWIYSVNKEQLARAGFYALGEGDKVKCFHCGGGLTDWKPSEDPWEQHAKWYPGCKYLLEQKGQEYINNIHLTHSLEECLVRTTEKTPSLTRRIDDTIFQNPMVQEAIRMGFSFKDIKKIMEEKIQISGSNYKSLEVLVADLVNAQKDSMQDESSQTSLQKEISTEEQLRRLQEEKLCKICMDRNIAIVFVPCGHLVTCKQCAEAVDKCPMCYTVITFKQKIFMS
Sequence of 72 kDa type IV collagenase (P08253 whole entry): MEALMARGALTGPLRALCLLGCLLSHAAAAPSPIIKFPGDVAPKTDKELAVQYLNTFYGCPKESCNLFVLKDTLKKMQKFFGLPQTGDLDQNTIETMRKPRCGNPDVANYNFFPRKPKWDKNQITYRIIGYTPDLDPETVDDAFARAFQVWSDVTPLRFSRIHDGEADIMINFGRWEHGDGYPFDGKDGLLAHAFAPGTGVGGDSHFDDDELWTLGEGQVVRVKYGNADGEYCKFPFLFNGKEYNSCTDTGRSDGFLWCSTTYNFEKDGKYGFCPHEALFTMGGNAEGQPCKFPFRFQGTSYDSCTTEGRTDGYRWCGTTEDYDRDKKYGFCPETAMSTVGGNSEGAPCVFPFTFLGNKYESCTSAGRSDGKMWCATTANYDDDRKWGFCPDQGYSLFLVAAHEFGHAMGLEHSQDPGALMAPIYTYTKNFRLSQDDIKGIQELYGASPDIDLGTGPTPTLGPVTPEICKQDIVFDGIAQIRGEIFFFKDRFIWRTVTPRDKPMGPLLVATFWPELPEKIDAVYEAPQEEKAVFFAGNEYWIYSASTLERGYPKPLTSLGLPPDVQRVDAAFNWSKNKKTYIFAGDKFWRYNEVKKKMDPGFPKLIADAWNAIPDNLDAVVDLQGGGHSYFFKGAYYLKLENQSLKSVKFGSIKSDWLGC

With `NS(=O)(=O)c1ccc(NC(=O)c2ccc(-c3ccccc3)cc2)cc1` the IC50 [1] was > 50 µM (inactive), the IC50 (SUMO-activating enzyme) was 13.8 µM (active) and the IC50 [2] was 4.83 µM (active). The IC50 [3] was > 100 µM (inactive), the IC50 (Prothrombin) was 51.4 µM (active) and the IC50 [4] was 4.56 µM (active). For the same molecule, the IC50 [5] was 8.12 µM (active).
For `CC(C)c1nc2sc3c(=O)[nH]c(=S)[nH]c3c2c2c1CCC2`, the EC50 [6] was > 79.4 µM (inactive), the EC50 [7] was > 79.4 µM (not active) and the EC50 [8] was > 79.4 µM (not active). For the same molecule, the IC50 [9] was < 0.4 µM (active).
With `NS(=O)(=O)c1ccc(NC(=S)Nc2ccccc2)cc1` the IC50 [10] was 25 µM (active).
With `NS(=O)(=O)c1ccc(NC(=O)N2CCN(Cc3cccnc3)CC2)cc1` the IC50 [10] was > 100 µM (inactive).
With `CCC(=O)N1c2ccc(S(=O)(=O)N3CCN(c4ccc([N+](=O)[O-])cc4)CC3)cc2CC1C` (centres undefined) the IC50 (HEK293 [11]) was 3.16 µM (active), the EC50 (HEK293 [12]) was 1.67 µM (active) and the IC50 (HEK293 [13]) was 4.46 µM (active). The AC50 (INS1) was 4.98 µM (active), the IC50 [14] was 2.24 µM (active) and 1.87 µM (active) and the AC50 [15] was 9.71 µM (active). The IC50 (Tumor necrosis factor) was 4.09 µM (active) and 4.88 µM (active), the IC50 (HEK293 [16]) was > 20 µM (inactive) and the AC50 [17] was 1.52 µM (active). The IC50 (HEK293 [18]) was > 20 µM (inactive), the AC50 [19] was 1.93 µM (active) and the IC50 [20] was > 80 µM (inactive).
In the case of `O=C(Nc1ccc(F)cc1)C1CCCN1C(=O)Oc1ccccc1` (centres undefined), the IC50 [21] is reported as > 100 µM (inactive) and the IC50 [22] is reported as > 100 µM (inactive).
In the case of `O=C(NCCCN1CCOCC1)c1ccc(Br)cc1Br`, the IC50 [23] is reported as > 100 µM (inactive) and the IC50 [24] is reported as > 100 µM (not active).
